{"source": "patent US9044478B2", "about": "“Use of 1,4-bis (3-aminoalkyl) piperazine derivatives in the treatment of neurodegenerative diseases” (INSTITUT NATIONAL DE LA SANTE ET DE LA RECHERCHE MEDICALE, priority 2004, dated 2015)", "key": {"[1]": {"test_system": "Aβ1-42", "experiment": "Aβ 1-42 of the cell supernatant quantified by ELISA (Innotest β-Amyloid1-42)", "assay_type": "cell-based, human", "method": "(§1) The human neuroblastoma cell line SH-SYSY were cultured in Dulbecco's modified Eagle medium supplemented with 10% fetal calf serum, 2 mM L-glutamine, 1 mM non-essential amino-acids, penicillin/streptomycin (Invitrogen SARL, Cergy Pontoise, France) and 200 μg/ml G418 (to select for APP expression) in a 5% CO2 humidified incubator at 37° C. APP751 cDNA with the Swedish mutation (APP^Sw) was subcloned into stably eukaryotic expression vector pcDNA3 (Invitrogen), allowing for a G418 (Invitrogen) selection of stable clones. This APP cDNA was stably transfected into SH-SY5Y cells using the ethyleneimine polymer ExGen 500 (Euromedex) according to the manufacturer's instructions.\n(§2) Cells were plated into 6-well plates 24 h before drug exposure. […] After treatment, the medium was collected for the dosage of Aβ1-42. Cells were washed with phosphate-buffered saline and scraped with a policeman rubber in 70 μl of Laemmli sample buffer with protease inhibitors (Complete Mini Roche Molecular Biochemicals, Meylan, France), sonicated and heat-treated for 5 min at 100° C. Protein concentration was established using the PlusOne™ 2-D Quant Kit (Amersham Biosciences, Orsay, France) and samples were kept at −80° C. until used.\nThe collected medium was spun at 200 g to eliminate the cell debris and Aβ1-42 concentration was determined using the Innotest® β-Amyloid1-42 (Innogenetics, Ghent, Belgium) according to the manufacturer's instructions.\n(§3) SKNSH SY5Y transfected cells were grown in the presence of drugs at different concentrations, for example at 1 μM or 5 μM, then cells were harvested and analyzed for their APP-CTF content, using the western-blot approach, while Aβ 1-42 of the cell supernatant Was quantified by ELISA, as described in material and methods. For each compound, normal levels have the arbitrary value of 1. For example, if one APP-CTF is increased 10 times, the value is reported as 10. For Aβ peptide, if decreased of 60%, the value is reported as 0.4 (40% remaining)."}, "[2]": {"test_system": "brain capillary endothelial cells co-cultured with glial cells", "experiment": "In vitro Blood-Brain Barrier model, drug transport", "assay_type": "in vitro ADME", "conditions": "for Permeability coefficient: in vitro BBB model", "description": "(§4) The ability of some compounds to cross the Blood-Brain Barrier (BBB) has been evaluated, using an in vitro model (Cecchelli, R., et al., In vitro model for evaluating drug transport across the blood-brain barriers. Adv Drug Deliv Rev, 1999. 36(2-3): p. 165-178). The described model consists in brain capillary endothelial cells co-cultured with glial cells, thereby closely mimicking the in vivo conditions (Lundquist, S, and M. Renftel, The use of in vitro cell culture models for mechanistic studies and as permeability screens for the blood-brain barrier in the pharmaceutical industry-background and current status in the drug discovery process. Vascul Pharmacol 2002. 38(6): p. 355-64) and developed by CELLIAL Technologies SA.\n(§5) The transport of drug was good for example 16 and moderate for example 23. Indeed, the permeability coefficients obtained for example 16 (2.26×10^−3 cm/min) and example 23 (1.81×10^−3 cm/min) indicate that these compounds cross the BBB and are good candidates as CNS drugs."}, "[3]": {"test_system": "endothelial cell monolayer", "experiment": "Toxicity on the endothelial cell monolayer of the BBB model", "assay_type": "cell-based", "conditions": "concentration of 10 μM", "description": "as §4, §5"}, "[4]": {"experiment": "Solubility in the BBB screening", "assay_type": "physicochemical", "description": "as §5"}, "[5]": {"test_system": "APP-CTFs", "experiment": "APP-CTFs content of APPSw-transfected SH-SY5Y cells by western blot", "assay_type": "cell-based, human", "parameters": "key to β (APP-CTF β stub level, normal level = 1) / α (APP-CTF α stub level, normal level = 1) / γ (APP-CTF γ stub level, normal level = 1) / CTFs (APP-CTFs level, normal level = 1): fold of normal level, normal = 1", "method": "as §1, §2\nThe APPCter-C17 antibody is raised against the last 17 amino acids of the human APP sequence (Sergeant, N., David, J. P., Champain, D., Ghestem, A., Wattez, A., and Delacourte, A. (2002) J Neurochem 81, 663-672). This polyclonal antibody detects all APP-CTFs fragments. The tubulin signal was used as a loading control and to normalize the APP-CTFs content. Anti-mouse or anti-rabbit secondary antibodies coupled with horseradish peroxidase were purchased at SIGMA Immunochemicals (Saint Quentin Fallavier, France).\nThe same quantity of total proteins (20 μg/lane) was loaded on a 16.5% Tris-tricine polyacrylamide gel. Tris-tricine SDS-polyacrylamide gel electrophoresis (PAGE) was performed following the procedure of Schagger and Von Jagow (1987) (Schagger, H., and von Jagow, G. (1987) Anal Biochem 166, 368-379) with a protean II Xi Cell (Bio-Rad, Marnes la coquette, France). Proteins were transferred to nitrocellulose membrane at 2.5 mA/cm^2 per gel using the SemiDry Novablot Transfer system (Amersham Biosciences, Orsay, France), according to the manufacturer's instructions. Proteins were reversibly stained with Ponceau Red to check the quality of the transfer. Membranes were blocked in 25 mM Tris-HCl pH 8.0, 150 mM NaCl, 0.1% Tween-20 (v/v) and 5% (w/v) of skimmed milk for 30 min. Membranes were incubated overnight at 4° C. with appropriate dilutions of the primary antibodies, and incubated for 1 h at room temperature with secondary antibody.\nWestern blot films were digitized using an UMax scanner calibrated for optical densities (Amersham Biosciences). The Image-MASTER 1D ELITE Software (Amersham Biosciences) was used to quantify the signal, and data were collected using Excel Software (Microsoft, LesUlis, France).\nas §3"}, "[6]": {"conditions": "greater concentration (5 μM) at 24 hours"}, "[7]": {"conditions": "low concentration (1 μM) at 6 hours"}, "[8]": {"conditions": "24 h, 1 μM as printed (fourth column)"}}}
{"compound": "1,4-bis{3-[N-n-heptyl)amino]propyl}piperazine [Example 10]", "values": [{"measurement": "Decrease of Aβ peptide levels compared to the control (FIG. 1)", "setting": "[1]; [6]", "value": "efficiency is confirmed"}, {"measurement": "Decrease of Aβ peptide levels compared to the control (FIG. 1)", "setting": "[1]; [7]", "value": "efficient to decrease Aβ peptide levels"}]}
{"compound": "N^4-[3-(4-{3-[diisobutylamino]propyl}piperizano)propyl]-4-benzyloxyamine [Example 23]", "values": [{"measurement": "Transport of drug across the in vitro BBB", "setting": "[2]", "value": "moderate"}, {"measurement": "Diffusion across the filter membrane coated with collagen and without cells", "setting": "[2]", "value": "able to diffuse across the filter membrane"}, {"measurement": "Permeability coefficient", "setting": "[2]", "value": 30.2, "unit": "×10⁻⁶ cm/s"}, {"measurement": "Toxicity on the endothelial cell monolayer", "setting": "[3]", "value": "not toxic"}, {"measurement": "Solubility", "setting": "[4]", "value": "soluble"}]}
{"compound": "Clc1ccc(CNCCCN2CCN(CCCNCc3ccc(Cl)cc3)CC2)cc1", "note": "[Example 4]", "values": [{"measurement": "Efficiency for α and γ-APP-CTFs stubs", "setting": "[5]", "value": "particularly high efficiency"}, {"measurement": "CTFs (APP-CTFs level, normal level = 1)", "setting": "[5]; 6 h, 1 μM", "value": 6}, {"measurement": "α (APP-CTF α stub level, normal level = 1)", "setting": "[5]; 6 h, 1 μM", "value": 14}, {"measurement": "β (APP-CTF β stub level, normal level = 1)", "setting": "[5]; 6 h, 1 μM", "value": 0.8}, {"measurement": "γ (APP-CTF γ stub level, normal level = 1)", "setting": "[5]; 6 h, 1 μM", "value": 9.6}, {"measurement": "CTFs (APP-CTFs level, normal level = 1)", "setting": "[5]; 6 h, 5 μM", "value": 5}, {"measurement": "α (APP-CTF α stub level, normal level = 1)", "setting": "[5]; 6 h, 5 μM", "value": 11}, {"measurement": "β (APP-CTF β stub level, normal level = 1)", "setting": "[5]; 6 h, 5 μM", "value": 1.2}, {"measurement": "γ (APP-CTF γ stub level, normal level = 1)", "setting": "[5]; 6 h, 5 μM", "value": 5.7}, {"measurement": "CTFs (APP-CTFs level, normal level = 1)", "setting": "[5]; 24 h, 1 μM (third column)", "value": 3.5}, {"measurement": "α (APP-CTF α stub level, normal level = 1)", "setting": "[5]; 24 h, 1 μM (third column)", "value": 3.5}, {"measurement": "β (APP-CTF β stub level, normal level = 1)", "setting": "[5]; 24 h, 1 μM (third column)", "value": 0.8}, {"measurement": "γ (APP-CTF γ stub level, normal level = 1)", "setting": "[5]; 24 h, 1 μM (third column)", "value": 5.1}, {"measurement": "CTFs (APP-CTFs level, normal level = 1)", "setting": "[5]; [8]", "value": 65}, {"measurement": "α (APP-CTF α stub level, normal level = 1)", "setting": "[5]; [8]", "value": 7}, {"measurement": "β (APP-CTF β stub level, normal level = 1)", "setting": "[5]; [8]", "value": 5}, {"measurement": "γ (APP-CTF γ stub level, normal level = 1)", "setting": "[5]; [8]", "value": 14.4}, {"measurement": "Efficiency for Aβ peptide (FIG. 1)", "setting": "[1]", "value": "particularly high efficiency"}, {"measurement": "Aβ (Aβ peptide level, normal level = 1; fraction remaining)", "setting": "[1]; 6 h, 1 μM", "value": 0.2}, {"measurement": "Aβ (Aβ peptide level, normal level = 1; fraction remaining)", "setting": "[1]; 6 h, 5 μM", "value": 0}, {"measurement": "Aβ (Aβ peptide level, normal level = 1; fraction remaining)", "setting": "[1]; 24 h, 1 μM (third column)", "value": 1}, {"measurement": "Aβ (Aβ peptide level, normal level = 1; fraction remaining)", "setting": "[1]; [8]", "value": 0.1}, {"measurement": "Decrease of Aβ peptide levels compared to the control (FIG. 1)", "setting": "[1]; [6]", "value": "efficiency is confirmed"}, {"measurement": "Decrease of Aβ peptide levels compared to the control (FIG. 1)", "setting": "[1]; [7]", "value": "efficient to decrease Aβ peptide levels"}]}
{"compound": "N^4-(3-{4-[3(diisobutylamino)propyl]piperizano}propyl)-benzimidazol-2-amine [Example 16]", "values": [{"measurement": "Transport of drug across the in vitro BBB", "setting": "[2]", "value": "good"}, {"measurement": "Diffusion across the filter membrane coated with collagen and without cells", "setting": "[2]", "value": "able to diffuse across the filter membrane"}, {"measurement": "Permeability coefficient", "setting": "[2]", "value": 37.7, "unit": "×10⁻⁶ cm/s"}, {"measurement": "Toxicity on the endothelial cell monolayer", "setting": "[3]", "value": "not toxic"}, {"measurement": "Solubility", "setting": "[4]", "value": "soluble"}]}
